The target in this assay is TrkA (Homo sapiens (Human), UniProt P04629). The experiment in a line: TrkA kinase HTRF enzyme inhibition assay. The class given is biochemical. The settings on record: TrkA pre-incubated with 200 μM ATP. The protocol:
TrkA enzyme was obtained from Invitrogen (as catalog numbers PV3144, PV3616, and PV3617, respectively). Enzyme activity was measured in an HTRF® (homogeneous time resolved fluorescence) assay, which detects enzymatic phosphorylation of a biotinylated synthetic peptide substrate (an LCK peptide analog, biotin-ahx-[…], from Genemed Synthesis). Phosphorylation is assessed by HTRF® in the presence of an anti-phosphotyrosine antibody conjugated to Eu^3+ cryptate (Cisbio) as donor fluorophore, and streptavidin conjugated to allophycocyanin (ProZyme) as acceptor fluorophore. The HTRF® signal was detected at two different wavelengths (620 nm and 665 nm) which were used to calculate the fluorescence ratio.
TrkA enzyme was titrated to a concentration optimized to ensure accurate measurement of the initial reaction rate. To allow the TrkA enzyme to undergo activation and auto-phosphorylation, a 20 minute pre-incubation with ATP was carried out (at twice the final targeted enzyme and ATP concentration) prior to addition of test compound and the peptide substrate.
TrkA in vitro assays were performed by pre-incubating TrkA (2-10 nM) with ATP (200 μM) for 20 minutes at ambient temperature in 50 mM HEPES pH 7.4, 10 mM MgCl2, 2 mM MnCl2, 100 μM Na3VO4, 1 mM dithiothreitol, 0.01% BSA (bovine serum albumin). Then, to the activated Trk enzyme mixture was added the test compound in 2% dimethyl sulfoxide. After 10 minutes, the peptide substrate (125 nM) was added. After 1 hour, enzyme reactions were terminated by addition of equal reaction volumes of detection/stop reagent (containing 0.2 μg/mL anti-phosphotyrosine monoclonal antibody labeled with europium from Cisbio (catalog#PT66-K), and 4 μg/mL PhycoLink® Streptavidin-Allophycocyanin conjugate from ProZyme (catalog#PJ25S) in 60 mM EDTA in 40 mM HEPES pH 7.4, 480 mM KF, 0.01% Tween® 20 and 0.1% BSA bovine serum albumin) Reaction plates were stored at 4° C. overnight before reading the fluorescence ratio signal on a PerkinElmer EnVision™ fluorescence detector. Individual reaction wells were stopped at time points to obtain reaction rates. The test inhibitor compounds were assayed in duplicate, at half-log serial dilutions over a range of concentrations (e.g. starting at 50 μM or 5 μM as the high compound concentration). The percent Trk enzyme inhibition was calculated from the initial rates of the inhibited reactions relative to the uninhibited control. IC50 values were calculated by fitting the inhibition percent to the concentration of inhibitor [I] in the assay in equation 1 below, to solve for the IC50. Inhibition %=100[I]/([I]+[IC50]) equation 1
For orientation: Time-resolved FRET reads energy transfer from a long-lived donor to a nearby acceptor.

Molecules are shown by their SMILES.

Sequence of TrkA (P04629 33-796): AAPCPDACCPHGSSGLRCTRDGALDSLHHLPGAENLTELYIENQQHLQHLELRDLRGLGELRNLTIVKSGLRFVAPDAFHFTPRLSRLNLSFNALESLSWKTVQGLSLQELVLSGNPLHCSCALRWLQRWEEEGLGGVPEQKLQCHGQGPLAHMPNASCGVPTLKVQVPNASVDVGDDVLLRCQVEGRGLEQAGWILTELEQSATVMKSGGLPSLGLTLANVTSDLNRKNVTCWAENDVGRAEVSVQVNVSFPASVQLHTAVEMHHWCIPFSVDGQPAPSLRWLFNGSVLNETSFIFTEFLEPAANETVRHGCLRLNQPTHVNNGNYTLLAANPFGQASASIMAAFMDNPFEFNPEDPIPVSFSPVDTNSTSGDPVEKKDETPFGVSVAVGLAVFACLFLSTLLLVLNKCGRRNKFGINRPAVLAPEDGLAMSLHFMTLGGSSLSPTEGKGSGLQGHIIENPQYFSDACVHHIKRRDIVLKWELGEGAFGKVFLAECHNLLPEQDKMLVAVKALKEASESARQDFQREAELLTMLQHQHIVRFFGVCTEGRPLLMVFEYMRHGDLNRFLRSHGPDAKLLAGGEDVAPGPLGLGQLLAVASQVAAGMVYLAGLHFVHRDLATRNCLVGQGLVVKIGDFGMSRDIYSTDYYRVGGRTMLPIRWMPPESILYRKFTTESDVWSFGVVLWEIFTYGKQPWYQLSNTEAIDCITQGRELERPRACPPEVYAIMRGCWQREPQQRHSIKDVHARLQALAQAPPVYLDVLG

`Cn1cc2cc(NC(=O)c3coc4c3C(=O)NCC4)ccc2n1` [Example 1, N-(2-methyl-2H-indazol-5-yl)-4-oxo-4,5,6,7-tetrahydrofuro[3,2-c]pyridine-3-carboxamide]: the IC50 (commonly the point on the concentration scale where inhibition reaches its midpoint) is 44.2 nM.

On to `O=C(Nc1ccc(N2CCOCC2)cc1)c1coc2c1C(=O)NCC2` [Example 3, N-[4-(morpholin-4-yl)phenyl]-4-oxo-4,5,6,7-tetrahydrofuro[3,2-c]pyridine-3-carboxamide], for which 173 nM corresponded to half-maximal inhibition (IC50). On to `Cc1ccc(NC(=O)c2coc3c2C(=O)N(C)CC3)cc1` [Example 4, 5-methyl-N-(4-methylphenyl)-4-oxo-4,5,6,7-tetrahydrofuro[3,2-c]pyridine-3-carboxamide], for which half-maximal inhibition (IC50) was put at 375 nM. As for `COc1cc(N2CCN(C(=O)OC(C)(C)C)CC2)ccc1NC(=O)c1coc2c1C(=O)NCC2` [Example 5, tert-butyl 4-(3-methoxy-4-{[(4-oxo-4,5,6,7-tetrahydrofuro[3,2-c]pyridin-3-yl)carbonyl]amino}phenyl)piperazine-1-carboxylate], the figure is 54.4 nM; as for `COc1nc(N2CCN(C)CC2)ccc1NC(=O)c1coc2c1C(=O)NCCC2` [Example 7, N-[2-methoxy-6-(4-methylpiperazin-1-yl)pyridin-3-yl]-4-oxo-5,6,7,8-tetrahydro-4H-furo[3,2-c]azepine-3-carboxamide], 212 nM; as for `CCOc1nc(N2CCN(C(C)=O)CC2)ccc1NC(=O)c1coc2c1C(=O)N(CCOCc1ccccc1)CC2` [Example 8, N-[6-(4-acetylpiperazin-1-yl)-2-ethoxypyridin-3-yl]-5-[2-(benzyloxy)ethyl]-4-oxo-4,5,6,7-tetrahydrofuro[3,2-c]pyridine-3-carboxamide], 69.5 nM. As for `CC(=O)N1CCN(c2ccc(NC(=O)c3coc4c3C(=O)NCC4)cc2)CC1` [Example 10, N-[4-(4-acetylpiperazin-1-yl)phenyl]-4-oxo-4,5,6,7-tetrahydrofuro[3,2-c]pyridine-3-carboxamide], the figure is 55.9 nM.

In turn, `Cn1ncc2cc(NC(=O)c3coc4c3C(=O)NCC4)ccc21` [Example 11, N-(1-methyl-1H-indazol-5-yl)-4-oxo-4,5,6,7-tetrahydrofuro[3,2-c]pyridine-3-carboxamide] returned an IC50 of 64 nM. `O=C(Nc1ccc2[nH]cnc2c1)c1coc2c1C(=O)NCC2` [Example 12, N-(1H-benzimidazol-5-yl)-4-oxo-4,5,6,7-tetrahydrofuro[3,2-c]pyridine-3-carboxamide] displayed an IC50 of 99.6 nM. As for `NC(=O)c1ccc(NC(=O)c2coc3c2C(=O)NCC3)cc1` [Example 13, N-(4-carbamoylphenyl)-4-oxo-4,5,6,7-tetrahydrofuro[3,2-c]pyridine-3-carboxamide], the figure is 166 nM; as for `O=C(Nc1ccc2[nH]ncc2c1)c1coc2c1C(=O)NCC2` [Example 14, N-(1H-indazol-5-yl)-4-oxo-4,5,6,7-tetrahydrofuro[3,2-c]pyridine-3-carboxamide], 111 nM; as for `CN1CCN(c2ccc(NC(=O)c3coc4c3C(=O)NCC4)nc2)CC1` [Example 16, N-[5-(4-methylpiperazin-1-yl)pyridin-2-yl]-4-oxo-4,5,6,7-tetrahydrofuro[3,2-c]pyridine-3-carboxamide], 279 nM. As for `CN1CCN(c2ccc(NC(=O)c3coc4c3C(=O)NCC4)cc2)CC1` [Example 17, N-[4-(4-methylpiperazin-1-yl)phenyl]-4-oxo-4,5,6,7-tetrahydrofuro[3,2-c]pyridine-3-carboxamide], the figure is 81.4 nM. As for `COc1cc(N2CCN(C(C)=O)CC2)ccc1NC(=O)c1coc2c1C(=O)NCC2` [Example 18, N-[4-(4-acetylpiperazin-1-yl)-2-methoxyphenyl]-4-oxo-4,5,6,7-tetrahydrofuro[3,2-c]pyridine-3-carboxamide], the figure is 59.8 nM. The molecule `CCOc1nc(N2CCN(C(C)=O)CC2)ccc1NC(=O)c1coc2c1C(=O)NCC2` [Example 19, N-[6-(4-acetylpiperazin-1-yl)-2-ethoxypyridin-3-yl]-4-oxo-4,5,6,7-tetrahydrofuro[3,2-c]pyridine-3-carboxamide] came in with an IC50 of 16.3 nM.

Turning to `COCCOc1nc(N2CCN(C(C)=O)CC2)ccc1NC(=O)c1coc2c1C(=O)NCC2` [Example 20, N-[6-(4-acetylpiperazin-1-yl)-2-(2-methoxyethoxyl)pyridin-3-yl]-4-oxo-4,5,6,7-tetrahydrofuro[3,2-c]pyridine-3-carboxamide], the concentration for half-maximal inhibition (IC50) is 25.9 nM. As to `CC(=O)N1CCN(c2ccc(NC(=O)c3coc4c3C(=O)NCC4)c(OC3COC3)n2)CC1` [Example 21, N-[6-(4-acetylpiperazin-1-yl)-2-(oxetan-3-yloxy)pyridin-3-yl]-4-oxo-4,5,6,7-tetrahydrofuro[3,2-c]pyridine-3-carboxamide], the IC50 stood at 21.6 nM. As for `CN1CCN(c2ccc(NC(=O)c3coc4c3C(=O)N(C)CC4)cc2)CC1` [Example 22, 5-methyl-N-[4-(4-methylpiperazin-1-yl)phenyl]-4-oxo-4,5,6,7-tetrahydrofuro[3,2-c]pyridine-3-carboxamide], the figure is 200 nM; as for `CN1CCc2occ(C(=O)Nc3ccc4[nH]ncc4c3)c2C1=O` [Example 23, N-(1H-indazol-5-yl)-5-methyl-4-oxo-4,5,6,7-tetrahydrofuro[3,2-c]pyridine-3-carboxamide], 257 nM. The figure for `CN1CCc2occ(C(=O)Nc3ccc4c(cnn4C)c3)c2C1=O` [Example 24, 5-methyl-N-(1-methyl-1H-indazol-5-yl)-4-oxo-4,5,6,7-tetrahydrofuro[3,2-c]pyridine-3-carboxamide] is 189 nM. `CN1CCc2occ(C(=O)Nc3ccc(N4CCOCC4)cc3)c2C1=O` [Example 25, 5-methyl-N-[4-(morpholin-4-yl)phenyl]-4-oxo-4,5,6,7-tetrahydrofuro[3,2-c]pyridine-3-carboxamide] gave an IC50 of 112 nM. `CN1CCc2occ(C(=O)Nc3ccc(C(N)=O)cc3)c2C1=O` [Example 26, N-(4-carbamoylphenyl)-5-methyl-4-oxo-4,5,6,7-tetrahydrofuro[3,2-c]pyridine-3-carboxamide] returned an IC50 of 202 nM. The figure for `CN1CCc2occ(C(=O)Nc3ccc4[nH]cnc4c3)c2C1=O` [Example 27, N-(1H-benzimidazol-5-yl)-5-methyl-4-oxo-4,5,6,7-tetrahydrofuro[3,2-c]pyridine-3-carboxamide] is 428 nM; for `CC(=O)N1CCN(c2ccc(NC(=O)c3coc4c3C(=O)N(C)CC4)cc2)CC1` [Example 28, N-[4-(4-acetylpiperazin-1-yl)phenyl]-5-methyl-4-oxo-4,5,6,7-tetrahydrofuro[3,2-c]pyridine-3-carboxamide] it is 110 nM; for `Cc1nc2ccc(NC(=O)c3coc4c3C(=O)N(C)CC4)cc2s1` [Example 29, 5-methyl-N-(2-methyl-1,3-benzothiazol-6-yl)-4-oxo-4,5,6,7-tetrahydrofuro[3,2-c]pyridine-3-carboxamide] it is 169 nM. Turning to `Cc1ccc(NC(=O)c2coc3c2C(=O)NCC3)cc1` [Example 30, N-(4-methylphenyl)-4-oxo-4,5,6,7-tetrahydrofuro[3,2-c]pyridine-3-carboxamide], the IC50 stood at 521 nM.

`O=C(Nc1ccc(O)cc1)c1coc2c1C(=O)NCC2` [Example 31, N-(4-hydroxyphenyl)-4-oxo-4,5,6,7-tetrahydrofuro[3,2-c]pyridine-3-carboxamide] registered an IC50 of 390 nM. `CC(=O)Nc1ccc(NC(=O)c2coc3c2C(=O)NCC3)cc1` [Example 32, N-(4-acetamidophenyl)-4-oxo-4,5,6,7-tetrahydrofuro[3,2-c]pyridine-3-carboxamide] gave an IC50 of 554 nM. The figure for `O=C(Nc1ccc2ncccc2c1)c1coc2c1C(=O)NCC2` [Example 33, 4-oxo-N-(quinolin-6-yl)-4,5,6,7-tetrahydrofuro[3,2-c]pyridine-3-carboxamide] is 111 nM; for `O=C(Nc1ccc2cn[nH]c2c1)c1coc2c1C(=O)NCC2` [Example 34, N-(1H-indazol-6-yl)-4-oxo-4,5,6,7-tetrahydrofuro[3,2-c]pyridine-3-carboxamide] it is 910 nM; for `COc1ccc(NC(=O)c2coc3c2C(=O)NCC3)c(OC)n1` [Example 35, N-(2,6-dimethoxypyridin-3-yl)-4-oxo-4,5,6,7-tetrahydrofuro[3,2-c]pyridine-3-carboxamide] it is 117 nM. `O=C(Nc1ccon1)c1coc2c1C(=O)NCC2` [Example 36, N-(1,2-oxazol-3-yl)-4-oxo-4,5,6,7-tetrahydrofuro[3,2-c]pyridine-3-carboxamide] yielded an IC50 of 8010 nM.
